The values below come from patent US9402846B2, “Combination of inhibitor of B-Raf and inhibitor of AKT in the treatment of cancer” (Novartis AG, priority 2009, dated 2016).

Experiment in all cases: Cell growth inhibition assay (Cell Titer Glo, 3 days)
Type in all cases: cell-based

One test relates to 12R5-1. The following applies: Homo sapiens; 12R5-1, melanoma, Compound A resistant clone; BRAF_V600E, KRAS WT; mean ± std; read-out: IC50 Single Agent. As for the experimental part:
(§1) Human colon tumor lines, Colo205, DLD1, HCC2998, HCT15, HCT8, HT29, KM-12, LS1034, LS174T, NCI-H508, RKO, SW1417, SW1463, SW480, SW837 and T84, and human melanoma line A375 were from ATCC. A375PF11 was derived from A375, 12R5-1, 12R5-3, 12R8-1, 12R8-3, 16R5-2, 16R6-3 and 16R6-4 are single cell clones derived from mixed populations of A375PF11 cells that were selected to grow in Compound A to concentrations of 1200 and 1600 nM. All lines were cultured in RPMI 1640 medium containing 10% fetal bovine serum (FBS).
(§2) All cells were cultured for a minimum of 72 hours prior to cell plating. Cells were assayed in a 96-well tissue culture plate (NUNC 136102) of RPMI medium containing 10% FBS for all cells at 1,000 cells per well. Approximately 24 hours after plating, cells were exposed to ten, three-fold serial dilutions of compound or the combination of the two agents at a constant molar to molar ratio of 1:10 Compound A to Compound B in RPMI media containing 10% FBS. Cells were incubated in the presence of compounds for 3 days. ATP levels were determined by adding Cell Titer Glo® (Promega) according to the manufacturer's protocol. Briefly, Cell Titer Glo® was added each plate, incubated for 30 minutes then luminescent signal was read on the SpectraMax L plate reader with a 0.5 sec integration time.
(§3) Inhibition of cell growth was estimated after treatment with compound or combination of compounds for three days and comparing the signal to cells treated with vehicle (DMSO). Cell growth was calculated relative to vehicle (DMSO) treated control wells.
(§4) Combination effects on potency were evaluated using Combination Index (CI) which was calculated with the back-interpolated IC50 values and the mutually non-exclusive equation derived by Chou and Talalay (1): CI=Da/IC50(a)+Db/IC50(b)+(Da×Db)/(IC50(a)×IC50(b))
(§5) In general, a CI value <0.9, between 0.9 and 1.1, or >1.1 indicates synergy, additivity and antagonism, respectively. In general, the smaller the CI number, the greater is the strength of synergy.
(§6) The combination effects on the response scale were quantified by Excess Over Highest Single Agent (EOHSA) based on the concept of nonlinear blending as described in detail by Peterson and Novick (2007) and Peterson (2010) [(2;3) [Peterson and Novick, 2007; Peterson, 2010]. EOHSA values are defined as increases in improvement (here, in ‘percentage points’ (ppts) difference) produced by the combination over the best single agent at its component dose level for the combination. For single agent and combination treatments, cells were exposed to compounds at a fixed-dose-ratio, and dose response curves were fit to the experimental data and analyzed using regression models. At specified total dose levels of IC50 along the dose response curve, the dose combination (corresponding to IC50) was determined for making EOHSA statistical inferences.

Another test deals with 12R8-1. Conditions: Homo sapiens; 12R8-1, melanoma, Compound A resistant clone; BRAF_V600E, KRAS WT; mean ± std; read-out: IC50 Single Agent. As for the experimental part: as §1, §2, §3, §4, §5, §6
Another test deals with 16R5-2. Conditions: Homo sapiens; 16R5-2, melanoma, Compound A resistant clone; BRAF_V600E, KRAS WT; mean ± std; read-out: IC50 Single Agent. As for the experimental part: as §1, §2, §3, §4, §5, §6
A further test deals with HT29. Conditions: Homo sapiens, HT-29; HT29, colon; BRAF V600E, KRAS WT, PIK3CA P449T; mean ± std; read-out: IC50 Single Agent. As for the experimental part:
as §1, §2, §3, §4, §5, §6

A further test relates to KM-12. The following applies: Homo sapiens, KM12; KM-12, colon; BRAF WT, KRAS WT, PIK3CA WT; mean ± std; read-out: IC50 Single Agent. The protocol: as §1, §2, §3, §4, §5, §6
Another test relates to SW1417. Conditions: Homo sapiens; SW1417, colon; BRAF V600E, KRAS WT, PIK3CA WT; mean ± std; read-out: IC50 Single Agent. The protocol:
as §1, §2, §3, §4, §5, §6

Another test relates to 12R5-3. The following applies: Homo sapiens; 12R5-3, melanoma, Compound A resistant clone; BRAF_V600E, KRAS WT; mean ± std; read-out: IC50 Single Agent. The protocol: as §1, §2
(§7) Inhibition of cell growth was estimated after treatment with compound or combination of compounds for three days and comparing the signal to cells treated with vehicle (DMSO). Cell growth was calculated relative to vehicle (DMSO) treated control wells. […]

For a further test, the system named is 12R8-3. Conditions: Homo sapiens; 12R8-3, melanoma, Compound A resistant clone; BRAF_V600E, KRAS WT; mean ± std; read-out: IC50 Single Agent. The protocol: as §1, §2, §7
The test system of another test is A375PF11. The following applies: Homo sapiens, A375P-F11, melanoma, BRAF_V600E, KRAS WT, mean ± std, read-out: IC50 Single Agent. As for the experimental part: as §1, §2, §7
For a further test, the system named is HCT8. Conditions: Homo sapiens, HCT-8; HCT8, colon; BRAF WT, KRAS G13D, PIK3CA E545K; mean ± std; read-out: IC50 Single Agent. The protocol:
as §1, §2, §7

The subject of another test is LS174T. Conditions: Homo sapiens, colon, BRAF WT, KRAS G12D, PIK3CA H1047R, mean ± std, read-out: IC50 Single Agent. The protocol:
as §1, §2, §7

For a further test, the system named is NCI-H508. Conditions: Homo sapiens, NCl-H508, colon, BRAF G596R, KRAS WT, PIK3CA E545K, mean ± std, read-out: IC50 Single Agent. As for the experimental part:
as §1, §2, §7

Another test concerns RKO. Conditions: Homo sapiens, colon, BRAF V600E, KRAS WT, PIK3CA H1047R, mean ± std, read-out: IC50 Single Agent. The protocol: as §1, §2, §7
For another test, the system named is SW1463. The following applies: Homo sapiens; SW1463, colon; BRAF WT, KRAS G12C, PIK3CA WT; mean ± std; read-out: IC50 Single Agent. The protocol:
as §1, §2, §7

The next test has as its system T84. The following applies: Homo sapiens; T84, colon; BRAF WT, KRAS G13D, PIK3CA E542K; mean ± std; read-out: IC50 Single Agent. As for the experimental part:
as §1, §2, §7

For orientation: IC50 means the concentration needed to halve the response being measured. In the case of `Cn1ncc(Cl)c1-c1cc(C(=O)N[C@H](CN)Cc2ccc(F)c(F)c2)oc1Cl` [Compound B, N-{(1S)-2-amino-1-[(3,4-difluorophenyl)methyl]ethyl}-5-chloro-4-(4-chloro-1-methyl-1H-pyrazol-5-yl)-2-furancarboxamide], the IC50 was over 10 µM in the test on 12R5-1; over 10 µM in the test with 12R8-1; 7.05 ± 1.33 µM in the test on 16R5-2; 0.503 ± 0.073 µM in the test with HT29; 1.41 ± 0.961 µM in the test on KM-12; 2.59 ± 1.76 µM in the test with SW1417. In addition, the IC50 with 12R5-3 is over 10 µM; in the test with 12R8-3, over 10 µM; in the test with A375PF11 it was over 10 µM; in the test on HCT8 it was 0.527 ± 0.036 µM; in the test on LS174T it was 3.75 ± 0.945 µM; in the test on NCI-H508, 0.234 ± 0.247 µM. The values for the IC50 in the test with RKO, with SW1463 and in the test on T84 were 0.29 ± 0.07 µM, 5.23 ± 7.4 µM and over 10 µM, respectively.

Consider `CC(C)(C)c1nc(-c2cccc(NS(=O)(=O)c3c(F)cccc3F)c2F)c(-c2ccnc(N)n2)s1` [Compound A, N-{3-[5-(2-Amino-4-pyrimidinyl)-2-(1,1-dimethylethyl)-1,3-thiazol-4-yl]-2-fluorophenyl}-2,6-difluorobenzenesulfonamide], for which the IC50 in the test with 12R5-1 is over 10 µM; in the test with 12R8-1, over 10 µM; in the test on 16R5-2 it was over 10 µM; in the test with HT29, 0.028 ± 0.007 µM; in the test with KM-12, over 10 µM; in the test on SW1417 it was 0.101 ± 0.031 µM. Besides, the IC50 was over 10 µM in the test on 12R5-3; over 10 µM with 12R8-3; 0.063 µM in the test on A375PF11; over 10 µM in the test with HCT8; over 10 µM in the test with LS174T; over 10 µM in the test with NCI-H508. The IC50 with RKO is 3.14 ± 3.47 µM; in the test with SW1463, over 10 µM; with T84 it was over 10 µM.
